# According to US20180344725A1, “QUINOLONE CHALCONE COMPOUNDS AND USES THEREOF” (priority 2015, published 2018):
# What was measured:
# HeLa = assay: Immunofluorescent staining: centrosomes and chromosome segregation; type: cell-based; conditions: for ACS (abnormal chromosome segregation) / Monopolar centrosome: 3 μM
# Protocol: (§1) Cells on coverslips placed on the bottom of 35 mm tissue culture plates or 6-well clustered dishes were treated for 12-24 hours with the CTR compounds to be tested. Subsequently, the cells were fixed with 100% methanol for 15 minutes and washed with 1×PBS three times. Cells were then “blocked” with 3% BSA or 1% (v/v) FBS plus 1×PBST (1×PBS buffer containing 0.1% (v/v) Triton X-100 or 0.2% Tween 20), and incubated overnight at 4° C. with primary antibodies, with gentle agitation. Unbound primary antibodies were washed off with PBST, and a secondary antibody was added for 1 hour in the dark. Secondary antibodies were conjugated to Alexa 488 or 568. DNA was counterstained with DRAQ5 or DAPI. Subsequently, coverslips were washed three times with 1×PBST for 10 minutes each, followed by mounting them onto slides with 90% glycerol in 1×PBS. Each slide was visualized with a Carl Zeiss 510 Meta laser scanning microscope or an Axioscope. Image analysis was done with an LSM image examiner equipped with the microscopes (Carl Zeiss, Toronto, ON, Canada).
# (§2) The cancer-specific increase of mitotic cells in response to CTR-17 was correlated with the accumulation of cells with monopolar centrosomes and abnormal chromosome alignment/segregation (FIG. 11, Table 5). Cells were either sham-treated or treated with 3.0 μM CTR-17 for 12 hours or 24 hours, followed by analyses of cell cycle progression, centrosome abnormalities, and chromosome alignment/segregation. […] The mitotic index was determined by fluorescence microscopic analysis of at least 200 cells for each cell type, and data was expressed as percentage mean±S.E.M. of at least two independent experiments.
# (§3) Asynchronously growing cells were treated with 1 μM CTR-20 for 24 hours, followed by examining cells arrested in mitosis. The percentage of mitotic cells was calculated based on the examination of at least 250-400 cells. Cells treated with 1 μM CTR-20 for 24 hours on coverslips were fixed with ice-cold methanol, immunostained with an α-tubulin antibody, and then counterstained DNA with DRAQ5 prior to observing by florescent microscopy (Table 6). […] Similarly, cells treated with 1 μM CTR-20 accumulated monopolar centrosomes and defective chromosomal alignment and segregation in a cancer-specific manner.
# tubulin = target: T1, tubulin (Sus scrofa, UniProt P02550+P02554); assay: Dissociation constant of CTR-tubulin binding (tryptophan fluorescence); design: species or system porcine; conditions: purified tubulin 0.4 μM, 30 minutes at 37° C.
# T1 construct: purchased Cytoskeleton Inc. (Denver, Colo.) T240
# Protocol: Purified tubulin (0.4 μM) was dissolved in 25 mM PIPES buffer (pH 6.8) and incubated in the presence or absence of different concentrations of CTR-17 (or CTR-20) for 30 minutes at 37° C. The intrinsic fluorescence of the tryptophan residues in the tubulin heterodimers was monitored by excitation of the reaction mixture at 295 nm and the emission spectra at the 315-370 nm wavelength range. All measurements were corrected for the inner filter using the formula Fcorrected=Fobserved×antilog [(Aex+Aem)/2], where Aex and Aem are the absorbance of the reaction mixture at the excitation and emission wavelengths, respectively. Graph Pad Prism software was used to determine the dissociation constant of the CTR compounds binding to tubulin using the following formula
# wherein ΔF is the changes in fluorescence intensity of tubulin when bound with the CTR compounds, ΔFmax is the maximum change in the fluorescence intensity when tubulin is bound with the compounds, C is the concentration of the CTR compounds, and Kd is the dissociation constant of the CTR compounds bound to tubulin.
# MDA-MB-231 = assay: Immunofluorescent staining: centrosomes and chromosome segregation; type: cell-based, human; conditions: for ACS (abnormal chromosome segregation) / Monopolar centrosome: MDA-MB-231, 3 μM
# Protocol: as §1, §2, §3
# HeLa cells = assay: EdU incorporation (DNA replication); type: cell-based; conditions: 3.0 μM for 24 hours; sham control 25.4%
# Protocol: CTR-17 caused neither impediment of DNA replication nor DNA damage. […] The detection of EdU incorporated into DNA was carried out by fluorescence microscopy. […] Etoposide (50.0 μM) was used as a positive control.
# Body weight analysis = type: in vivo; conditions: ATH490 athymic mice; D0-D30
# Protocol: Animals were monitored for food and water consumption every day, and their body weights and tumor volumes were measured twice per week. Tumor volumes were measured with a digital caliper and were determined by using the following formula: ½ length×width^2. Blood samples were collected via cardiac puncture and processed further for ALT and AST measurements. The animals were then immediately euthanized by carbon dioxide. Tumors and vital organs (spleen, kidney, liver and lung) were collected and fixed in 10% buffered formalin at 4° C. overnight before being processed for paraffin embedding. The paraffin-embedded blocks were then cut into 4-5 μm thick sections. Each section of tumors and organs was stained with hematoxylin and eosin (H&E).
# Changes in body weight, hemoglobin (Hb) and the amount and ratio of alanine transaminase (ALT)/aspartate transaminase (AST) were used to measure toxic effects. In addition, vital organs (liver, spleen, kidney and lung) were analyzed by […] after they were harvested, fixed, processed, paraffin-embedded, sectioned, and stained as described above.
# . Six-week old ATH40 athymic nude mice were treated as indicated in the legend. “Tax” denotes that paclitaxel was injected by i.v. as described in Table 11. D0-D30 denotes day 0 to day 30 post-drug treatment. The numbers in brackets show drug concentrations in mg/kg body weight. […]
# NCI-60 cancer cell lines = assay: NCI-60 cancer panel SRB screening; type: cell-based; conditions: 10 μM, 48 hours
# Protocol: Ten μM of CTR-20 was used to examine the drug's efficacy against the NCI-60 cancer cell lines including: six leukemia cell lines, nine non-small cell lung cancer cell lines, seven colorectal cancer cell lines, six CNS cancer cell lines, nine melanoma cell lines, seven ovarian cancer cell lines, seven renal cancer cell lines, two prostate cancer cell lines and six breast cancer cell lines. Screening method was carried out by a sulforhodamine B (SRB) colorimetric assay.
# T1 sequence (P02554 whole entry): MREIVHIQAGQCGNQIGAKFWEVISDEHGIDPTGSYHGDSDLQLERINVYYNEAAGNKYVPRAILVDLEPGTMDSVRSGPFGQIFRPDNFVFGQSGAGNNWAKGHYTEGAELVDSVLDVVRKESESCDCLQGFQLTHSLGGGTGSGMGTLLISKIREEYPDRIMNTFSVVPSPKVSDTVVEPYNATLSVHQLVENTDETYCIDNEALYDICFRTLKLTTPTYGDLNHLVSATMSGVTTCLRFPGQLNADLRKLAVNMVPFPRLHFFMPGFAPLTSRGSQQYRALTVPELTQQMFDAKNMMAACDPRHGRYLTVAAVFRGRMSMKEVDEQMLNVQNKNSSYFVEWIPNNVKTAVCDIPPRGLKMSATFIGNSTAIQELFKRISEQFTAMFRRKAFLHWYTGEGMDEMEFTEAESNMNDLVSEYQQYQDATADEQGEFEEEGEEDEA
# T1 sequence (P02550 whole entry): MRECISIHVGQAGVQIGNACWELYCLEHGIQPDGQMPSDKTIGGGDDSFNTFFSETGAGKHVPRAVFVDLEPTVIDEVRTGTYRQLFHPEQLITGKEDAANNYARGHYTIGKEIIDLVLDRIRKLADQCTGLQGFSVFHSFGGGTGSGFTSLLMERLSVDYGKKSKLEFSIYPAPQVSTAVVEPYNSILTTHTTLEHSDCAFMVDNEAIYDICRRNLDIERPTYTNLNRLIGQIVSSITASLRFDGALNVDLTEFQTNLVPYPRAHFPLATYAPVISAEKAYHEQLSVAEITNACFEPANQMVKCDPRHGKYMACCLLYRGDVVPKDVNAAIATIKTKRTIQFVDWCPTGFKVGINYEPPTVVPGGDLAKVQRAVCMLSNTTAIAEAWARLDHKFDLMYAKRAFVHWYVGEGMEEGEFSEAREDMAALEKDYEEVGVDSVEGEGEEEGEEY
structure (smiles),measurement,setting,value
"COc1ccccc1C(=O)/C=C/c1cc2ccccc2[nH]c1=O [CTR-17, (E)-3-(3-(2-Methoxyphenyl)-3-oxoprop-1-enyl)quinolin-2(1H)-one]",ACS (abnormal chromosome segregation),HeLa; 12 h post-treatment,20.0 ± 4.5% of total mitotic cells
same,Monopolar centrosome,HeLa; 12 h post-treatment,80.0 ± 4.5% of total mitotic cells
same,ACS (abnormal chromosome segregation),HeLa; 24 h post-treatment,0.0 ± 0.0% of total mitotic cells
same,Monopolar centrosome,HeLa; 24 h post-treatment,100.0 ± 0.0% of total mitotic cells
same,Kd,tubulin,4.58 ± 0.95 µM
same,ACS (abnormal chromosome segregation),MDA-MB-231; 12 h post-treatment,60.0 ± 10.2% of total mitotic cells
same,Monopolar centrosome,MDA-MB-231; 12 h post-treatment,40.0 ± 10.2% of total mitotic cells
same,ACS (abnormal chromosome segregation),MDA-MB-231; 24 h post-treatment,55.1 ± 5.7% of total mitotic cells
same,Monopolar centrosome,MDA-MB-231; 24 h post-treatment,44.9 ± 5.7% of total mitotic cells
same,EdU positive cells,HeLa cells,22.0%
same,toxic side effect as determined by the changes in body weights,Body weight analysis,Neither CTR-17 nor CTR-20 caused any notable toxic side effect
"COc1ccc2[nH]c(=O)c(/C=C/C(=O)c3ccccc3OC)cc2c1 [CTR-20, (E)-6-Methoxy-3-(3-(2-methoxyphenyl)-3-oxoprop-1-enyl) quinolin-2(1H)-one]",ACA/S (%) (abnormal chromosome alignment and segregation),"HeLa; 1 μM, 24 hours",34.97 ± 1.96%
same,Monopolar (%),"HeLa; 1 μM, 24 hours",48.13 ± 3.34%
same,Kd,tubulin,5.09 ± 0.49 µM
same,cell survival (range over cell lines),NCI-60 cancer cell lines; nine melanomas,−10.05 to +50.45%
same,cell survival (range over cell lines),NCI-60 cancer cell lines; nine non-small cell lung cancer cell lines,−11.97 to 38.93%
same,cell survival (range over cell lines),NCI-60 cancer cell lines; seven colorectal cancer cell lines,+4.37 to +23.11%
same,cell survival (range over cell lines),NCI-60 cancer cell lines; seven ovarian cancer cell lines,+1.18 to +50.80%
same,cell survival (range over cell lines),NCI-60 cancer cell lines; seven renal cancer cell lines,−7.90 to +42.01%
same,cell survival (range over cell lines),NCI-60 cancer cell lines; six breast cancer cell lines,−2.02 to +18.91%
same,cell survival (range over cell lines),NCI-60 cancer cell lines; six leukemia cell lines,−2.46 to +10.88%
same,cell survival (range over cell lines),NCI-60 cancer cell lines; two prostate cancer cell lines,+10.76 to +22.06%
same,ACA/S (%) (abnormal chromosome alignment and segregation),"MDA-MB-231; MB231, 1 μM, 24 hours",58.05 ± 6.21%
same,Monopolar (%),"MDA-MB-231; MB231, 1 μM, 24 hours",35.73 ± 5.59%
same,toxic side effect as determined by the changes in body weights,Body weight analysis,Neither CTR-17 nor CTR-20 caused any notable toxic side effect
